The values that follow come from article PMC10197776 (Research Square, 2023).

Series [1] in a line: Intrinsic clearance in human microsomes. It is filed as in vitro ADME.
A short description of series [2]: Intrinsic clearance in human S9 fractions. The series is classed as in vitro ADME.
The next series concerns the target SARS-CoV-2 3CL^pro (Severe acute respiratory syndrome coronavirus 2, UniProt P0DTD1). The series is described as follows: biochemical. The conditions noted are these: for IC50: SARS-CoV-2 3CLpro. The series is classed as biochemical.
A further series has as its system SARS-CoV-2. Further details: method as in PMID 35352927. The note with it: TMPRSS2 VeroE6 model of SARS-CoV-2 infection; read-out: EC50 (antiviral); cited from earlier work.
The test system of a further series is SARS-CoV2. Further details: method as in PMID 33786375, PMID 34161756. The conditions noted are these: SARS-CoV2 plaque reduction assay; read-out: antiviral EC50; cited from earlier work. Background: Plaques are areas of infected cells; plaque reduction assays count them against a control.

SMILES strings stand for the structures.

What is called IC50 is the concentration that inhibits the measured activity by half. A low value points to higher potency. Turning to `O=C(Cc1cccnc1)N(Cc1cccc(Cl)c1)c1ccc(-c2cn[nH]c2)cc1` [compound 7], the “reduction in intrinsic clearance metabolism versus 6” value in series [1] and in series [2] was “two-fold reduction” in each case. This molecule displayed an IC50 on SARS-CoV-2 3CL^pro of 1270 nM. Moreover, on SARS-CoV-2 3CL^pro (from 3CLpro IC50), the “LE (ligand efficiency)” value turned out to be 0.27.
Usually EC50 stands for the midpoint of the concentration-response curve. As to `Cn1cnc(Cn2c(=O)[nH]/c(=N\c3cc4cn(C)nc4cc3Cl)n(Cc3cc(F)c(F)cc3F)c2=O)n1` [compound 2, Ensitrelvir], in the series with SARS-CoV-2, the EC50 was 370 nM.
On to `N#Cc1ccccc1-c1cc(-c2cc(Cl)cc(OCC3CC3)c2)c(=O)n(-c2cccnc2)c1` [compound 3], for which the EC50 with SARS-CoV2 is 980 nM.
Regarding `O=C(Cc1cncc2ccccc12)N(Cc1cc(F)cc(Cl)c1)c1ccc(-c2c[nH]cn2)cc1` [compound 27], the “fold improvement in IC50 compared to monocyclic pyridine 19” value at SARS-CoV-2 3CL^pro (IC50 ratio vs 19) was above 6 fold. Moreover, 26 nM corresponded to half-maximal inhibition on SARS-CoV-2 3CL^pro (IC50). Moreover, the LipE on SARS-CoV-2 3CL^pro (from 3CLpro IC50 and calculated properties) is recorded as 2.24.
